In US11058654B2, “Compositions and methods for the treatment of hemoglobinopathies and thalassemias” (AXCELLA HEALTH INC., priority 2018, dated 2021):

Experiments:
Assay type in all cases: cell-based, human
[1] = tested on: sickle cell disease patient blood; experiment: Reactive oxygen species (DCF fluorescence, H2O2) in sickle cell disease patient blood; conditions: treated with H2O2 and untreated in DPBS
Method: (§1) Whole blood samples were appropriately diluted in Ca^2+- and Mg^2+-free Dulbecco's phosphate buffered saline (DPBS, Life Technologies) and the concentration of erythrocytes (RBC/ml) was measured on a Cellometer K2 Fluorescent Viability Cell Counter according to the manufacturer's RBC/AOPI protocol (Nexcelom Biosciences).
(§2) Cells were then diluted to 1*10^6 RBC/ml into either prewarmed 37° C. […] 2′-7′-dichlorofluorescin diacetate (DCF, Millipore Sigma), 20 mM in dimethyl sulfoxide (DMSO, Fisher) were added to a working concentration of 100 μM. Cells were incubated with dye for 15 minutes at 37° C., 5% CO2 in a tissue culture incubator, washed once, and resuspended in the 0.9 volumes of the same prewarmed 37° C. buffer with 5 minute spins at 500× g, accel/decal=5 in a swing arm centrifuge (Beckman Coulter). […] Where possible due to solubility constrains, pH-7.4-adjusted stock solutions of amino acids were used. Wells were mixed by pipetting and plates incubated at 37° C., 5% CO2 in a tissue culture incubator for 30 minutes. Optionally, 40 mM H2O2(Millipore Sigma) freshly prepared in the same buffer was added to bring the concentration to 2 mM, wells mixed by pipetting, and plates were incubated an additional 30, 60, 120, or 240 minutes before fluorescence measurement of ROS signal on a Synergy H4 (BioTek) microplate reader with excitation=488 nm and emission=530 nm, and gain either set to autogain, 75, or 100.

[2] = tested on: whole blood of healthy control donors; experiment: Reactive oxygen species (DCF fluorescence, H2O2) in whole blood of healthy controls; conditions: healthy control donors; treated with H2O2; dose-responsive
Method: as §1, §2

[3] = tested on: VCAM-1; experiment: VCAM-1 cell integrated intensity in HLMVEC treated with TNFa; conditions: 0.5 ng/mL TNFα; amino acids at 20×; 24 hours; in words
From the text: (§3) A VEC model was employed to assess the ability of amino acids to influence aspects of vascular dysfunction in SCD. TNFa treatment of healthy donor HLMVEC mimics the SCD disease state and induces expression of adhesion markers ICAM-1 and VCAM-1, and secretion of proinflammatory cytokine IL-6. It is established that levels of ICAM-1, VCAM-1, and IL-6 can contribute to SCD pathology and correlate with the incidence and severity of complications in SCD patients. The VEC model sought to test the ability of amino acids to reduce the TNFa-induced disease phenotype by lowering expression of adhesion markers (ICAM-1 and VCAM-1) and inflammatory cytokines (IL-6) while promoting VEC health and viability.
(§4) Primary Human Lung Microvascular Endothelial Cells (HLMVEC; Lonza) were seeded at 6,000 cells per well in Endothelial Cell Growth Basal Medium-2 (Lonza) supplemented with Fetal Bovine Serum (FBS; Lonza), human EGF (Lonza), human VEGF (Lonza), R3-Insulin-like Growth Factor-1 (Lonza), ascorbic acid (Lonza), hydrocortisone (Lonza), human FGF-beta (Lonza), and gentamicin/amphotericin-b (Lonza) in a 96-well plate (Thermo Fisher). The cells were incubated for 45 minutes at room temperature, then incubated overnight at 37° C./5% CO2.
Following overnight incubation, cell were washed once with 150 μL of Dulbecco's phosphate buffered saline (DPBS; Gibco), and then treated with Endothelial Basal Medium MCB-131 (amino acid, glucose, sodium pyruvate, and phenol red free; US Biologicals) containing a defined custom amino acid concentration based on physiological concentrations in blood of patients with SCD (thus recapitulating observed metabolic imbalances such as the depletion of certain essential amino acids including arginine and aspartate and enrichment of certain non-essential amino acids including glutamate and asparagine), dialyzed FBS (Hyclone), human EGF (Lonza), human VEGF (Lonza), R3-Insulin-like Growth Factor-1 (Lonza), ascorbic acid (Lonza), hydrocortisone (Lonza), human FGF-beta (Lonza), and gentamicin/amphotericin-b (Lonza), glucose, 10 mM HEPES, sodium pyruvate, and sodium bicarbonate supplemented with one of the following: • a. PBS (vehicle control), • b. 0.5 ng/mL Tumor Necrosis Factor alpha (TNFα) and PBS, or; • c. 0.5 ng/mL TNFα and amino acid treatments at 20× mean physiological concentrations in plasma based on values published in the Human Metabolome Database (HMDB) in PBS.
After 24 hours of treatment, cells were washed once with 150 μL of DPBS (Gibco), then fixed with 4% paraformaldehyde. […]
(§5) Antibody binding was detected by fluorescence microscopy using a high content imager (Molecular Devices). Images were analyzed using MetaXpress 6 software to determine the integrated intensity per cell for each wavelength corresponding to ICAM-1 or VCAM-1.

[4] = tested on: ICAM-1; experiment: ICAM-1 cell integrated intensity in HLMVEC treated with TNFa; conditions: 0.5 ng/mL TNFα; amino acids at 20×; 24 hours; in words
From the text: as §3
as §4, with “The cells were incubated for 45 minutes at room temperature, then incubated overnight at 37° C./5% CO2.” left out
as §5

SMILES: CC(=O)N[C@@H](CS)C(=O)O [N-Acetyl Cysteine, N-acetylcysteine]
- ROS measured in whole blood [1]: reduced ROS
- ROS measured in whole blood [2]: reduced ROS
- VCAM-1 expression in HLMVEC [3]: greatly reduced
- TNF-α induced ICAM-1 expression levels in HLMVEC [4]: reduced levels of ICAM-1 expression to a lesser extent
